Data from paper PMC12914960, “Repurposing a detrimental antibody epitope as targeted therapeutics for sepsis and rheumatoid arthritis” (Military Medical Research, 2026).
Where a SMILES comes first, the peptide text is derived from it.

Test system: Differentiated human macrophages
Assay: Cellular uptake of Alexa Fluor 555-labeled HMGB1 by differentiated macrophages
Type: cell-based
Settings: P2-1 10 µg/ml, HMGB1 0.5 µg/ml, 2 h, 37 °C
Protocol: plots and heatmaps were generat ed via ggplot2 and pheatmap packages in R, respectively. Genes with an adjusted P -value < 0.05 and a |log2 fold change| > 1 were considered differentially expressed.
Human macrophage differentiation and treatment
Human PBMCs were differentiated into macrophages by culturing in human macrophage colony-stimulating factor (M-CSF, 20 ng/ml) for 5 – 6 d. Differentiated macrophages were maintained in Dulbecco’s modified Eagle’s medium supplemented with 1% penicillin/streptomycin and 10% human serum. […]
Cell viability was assessed via the tryp an blue excl usion and lactat e dehyd ro genase (LDH) release method as previously described . For trypan blue exclusion, random phase-contr ast images were captur ed , and the percentage of nonviable, trypan blue-stained cells was calculated. LDH release in the culture medium was quantified with an LDH Ass ay Kit (Cat. #L7572, Pointe Scientific Inc., Canton, MI, USA) according to the manufacturer ’s instructions. Optical density was measured at 340 nm, and LDH content was expressed as a per centag e of maximal release in the presence of 2% Triton X-100. […]
#H-1200, Vector Laborat ories, Inc., Newark, CA, USA) for nuclear counterstaining. Endocytic uptake of Alexa Fluor 555- labeled HMGB1 (red) was visualized via the Olympus IX51 inverted fluorescence & phase contrast tissue culture microscope. […]

Structure (SMILES): CCCC[C@H](NC(=O)[C@H](Cc1c[nH]cn1)NC(=O)[C@@H](NC(=O)[C@H](CCCCN)NC(=O)[C@@H](N)[C@@H](C)O)C(C)C)C(=O)N[C@@H](CCCCN)C(=O)N[C@@H](CO)C(=O)N[C@@H](Cc1ccccc1)C(=O)N[C@@H](CC(C)C)C(=O)N[C@@H](C)C(=O)N[C@@H](Cc1ccccc1)C(=O)N[C@@H](CCC(N)=O)C(=O)N[C@H](C(=O)N[C@@H](CCCCN)C(=O)N[C@H](C(=O)O)[C@@H](C)O)[C@@H](C)O [P2-1] (HELM PEPTIDE1{T.K.V.H.[Nle].K.S.F.L.A.F.Q.T.K.T}$$$$V2.0; N-terminus and C-terminus assumed)
- HMGB1 cellular uptake, in words: markedly reduced Alexa Fluor 555-HMGB1 uptake
